Consider 4 compounds from patent publication US20250340557A1, “PYRIMIDINE DERIVATIVE” (ASKA PHARMACEUTICAL CO., LTD., priority 2022, published 2025).

The target of the experiment is T1, human mPGES-1 (Homo sapiens, UniProt O14684).
T1 construct: made in house; host or cells: COS-1 cells (transient transfection; microsomal fraction used as enzyme)
T1 sequence (O14684 1-152): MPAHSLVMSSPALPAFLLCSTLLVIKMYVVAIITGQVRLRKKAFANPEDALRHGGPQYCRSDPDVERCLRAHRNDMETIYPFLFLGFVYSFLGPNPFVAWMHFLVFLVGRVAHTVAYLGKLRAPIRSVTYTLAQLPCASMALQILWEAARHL
The experiment can be described thus: Test for mPGES-1 inhibitory activity (microsomal enzyme, PGE2 EIA). Type of experiment: biochemical. The conditions noted are these: 4° C., 4 minutes, read-out: h mPGES1 IC50. In outline: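 IC50 values were derived from EIA-quantified PGE2 after a 4 min, 4 °C reaction with PGH2 at 1 μM final, stopped with ferric chloride/citric acid. Beforehand, compound (2% DMSO final) sat 15 min at 4 °C with human mPGES-1 microsomes from transiently transfected COS-1 cells. Buffer was sodium phosphate pH 7.2 containing 2.5 mM reduced glutathione and 1 mM EDTA.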

The mark [1] stands for this setting: microsomes from COS-1 cells transfected with human mPGES-1 cDNA, substrate PGH2 1 μM, PGE2 measured by EIA.
Setting [2] is: microsomes of COS-1 cells transfected with human mPGES-1 cDNA, PGH2 1 μM, PGE2 by EIA.

Structures are written as SMILES. pIC50: −log10 of the molar value. Where two headings read alike, the source gives them in different places.

Broadly, the pIC50 is the negative decadic logarithm of the IC50, by convention in mol/L. In the case of `Cc1nc(-c2c(C(F)(F)F)ccc(CNC(=O)C3CCN(c4ccc5cccc(C)c5n4)CC3)c2F)[nH]c(=O)c1C` [Example 13, N-[3-(4,5-dimethyl-6-oxo-1,6-dihydropyrimidin-2-yl)-2-fluoro-4-(trifluoromethyl)benzyl]-1-(8-methylquinolin-2-yl)piperidine-4-carboxamide], the pIC50 under setting [1] was 8.62.
Turning to `O=C(NCc1ccc(C(F)(F)F)c(-c2nc(C(F)(F)F)cc(=O)[nH]2)c1F)C1CCN(c2ccc(OC(F)F)cc2)CC1` [Example 71, 1-[4-(difluoromethoxy)phenyl]-N-{2-fluoro-3-[6-oxo-4-(trifluoromethyl)-1,6-dihydropyrimidin-2-yl]-4-(trifluoromethyl)benzyl}piperidine-4-carboxamide], the pIC50 under setting [1] was 8.00.
On to `CCc1cc(=O)[nH]c(-c2c(C(F)(F)F)ccc(CNC(=O)[C@H]3C[C@H](OCc4ccc(F)c(Cl)c4)C3)c2F)n1` [Example 210, trans-3-[(3-chloro-4-fluorobenzyl)oxy]-N-[3-(4-ethyl-6-oxo-1,6-dihydropyrimidin-2-yl)-2-fluoro-4-(trifluoromethyl)benzyl]cyclobutane-1-carboxamide], for which, under setting [2], the pIC50 was 8.10.
Regarding `O=c1cc(C(F)(F)F)nc(-c2c(C(F)(F)F)ccc(CNC(=O)[C@H]3C[C@H](OCc4ccc(F)cc4Cl)C3)c2F)[nH]1` [Example 154, trans-3-[(2-chloro-4-fluorobenzyl)oxy]-N-{2-fluoro-3-[6-oxo-4-(trifluoromethyl)-1,6-dihydropyrimidin-2-yl]-4-(trifluoromethyl)benzyl}cyclobutane-1-carboxamide], the pIC50 under setting [2] is more than 9.00.
